Here are results for 24 compounds from publication PMC7321382, “Synthesis and Antibacterial Analysis of Analogues of the Marine Alkaloid Pseudoceratidine” (Molecules, 2020).

Series [1] relates to S. aureus 16207. The series is described as follows: Antibacterial MIC, broth microdilution, S. aureus. The format is cell-based, Staphylococcus aureus. The settings on record: Staphylococcus aureus, 16207; Gram-positive; 24 h incubation; highest concentration tested 32 µM. The procedure:
(§1) The MIC was determined using the broth microdilution method. Mueller Hinton (MH) broth base was prepared in milli-Q water, then autoclaved at 120 °C for 1 h before allowing it to cool to room temperature. A single colony of each bacterial strain (E. coli DH5α and S. aureus 16207) was inoculated in MHB and incubated at 37 °C overnight. Overnight cultures were adjusted to 10^6 CFU/mL in MHB according to the McFarland Standard,100 μL of which was further diluted to a total of 10 mL in the media. The stock solutions of the compounds were prepared at 12.8 mM in purified DMSO. The stock solutions were further diluted in milli-Q water to 64 μM in 0.5% DMSO for testing against S. aureus, and 256 μM in 2% DMSO for testing against E. coli. Compounds that were not soluble in these solvent mixtures were further diluted in half to get clear solutions for the bioassay. DMSO is known to have weak antibacterial activity. To exclude the antibacterial effect of DMSO from the results, a solution of 2% DMSO in milli-Q water was used as an additional control in the experiments. The compounds and three controls (the natural product pseudoceratidine 1 for both strains, streptomycin for S. aureus, and polymyxin B for E. coli) then underwent a dilution series. The assay was performed by adding 50 μL of each compound solution at the different concentrations and 50 μL of the diluted bacterial culture to the different wells of a 96-well microtiter plate. The experiments were performed at least thrice and in triplicates. MIC after 24 h of incubation was determined by both visual inspection and absorbance at 600 nm using an EnSpire Multimode plate reader.

The test system of series [2] is E. coli DH5α. The series is described as follows: Antibacterial MIC, broth microdilution, E. coli. Format: cell-based, Escherichia coli. The settings on record: Gram-negative, 24 h incubation, highest concentration tested 128 µM, † lower starting concentration due to insolubility; for MIC: Escherichia coli. On the procedure: as §1
For orientation: Broth dilution looks for growth in wells or tubes with falling amounts of substance.

Converted amounts (≈) assume the structure as drawn.

The MIC is the least concentration at which growth counts as inhibited. A high value points to weaker potency. In general, melting point refers to the temperature, or range, at which the solid turns liquid. Take `O=C(NCCCCNCCCNC(=O)c1cc(I)c[nH]1)c1cc(I)c[nH]1` [Compound 17f]: the melting point lay in the range of 89 to 90 °C. In series [1], this compound returned an MIC of over 32 µM. The compound also returned an MIC in series [2] of over 128 µM.

Take `O=C(NCCCCNCCCNC(=O)c1cc(Cl)c(Cl)[nH]1)c1cc(Cl)c(Cl)[nH]1` [Compound 17c]: the MIC in series [1] was over 32 µM; in series [2], 128 to 256 µM (≈ 60.1 to 120 µg/mL).

As for `O=C(NCCCCNC(=O)c1cc(Br)c(Br)[nH]1)c1cc(Br)c(Br)[nH]1` [Compound 12e], the melting point was over 230 °C. Also, in series [1], the MIC was over 32 µM. In series [2], the MIC was over 64 µM.

Consider `CC(C)(C)OC(=O)NCCCNC(=O)c1cc(Br)c(Br)[nH]1` [Compound 28e], for which the MIC in series [1] was over 32 µM; in series [2], over 128 µM.

Take `CN(C)CCCNC(=O)c1cc(Br)c(Br)[nH]1` [Compound 27e]: the MIC in series [1] is over 32 µM; in series [2] it was over 128 µM.

`[H]/N=C(/N)N[C@H]1[C@H](O)[C@@H](O)[C@H](O[C@@H]2O[C@@H](C)[C@](O)(C=O)[C@H]2O[C@@H]2O[C@@H](CO)[C@H](O)[C@@H](O)[C@@H]2NC)[C@@H](N/C(N)=N\[H])[C@@H]1O` [Streptomycin, streptomycin, reference compound] displayed an MIC in series [1] of 0.625 to 1.25 µM (≈ 0.363 to 0.727 µg/mL).

Regarding `NCCNCCCNC(=O)c1cc(Br)c(Br)[nH]1` [Compound 24], the MIC is over 32 µM in series [1] and over 128 µM in series [2].

Consider `NCCNCCCNC(=O)c1cc(Br)c[nH]1` [Compound 22], for which the MIC in series [1] is over 32 µM; in series [2] it was over 128 µM.

In the case of `CN(C)CCCNC(=O)c1ccc[nH]1` [Compound 27a], the values for the MIC in series [1] and in series [2] were over 32 µM and over 128 µM, respectively.

For the compound `O=C(NCCCCNC(=O)c1cc(I)c[nH]1)c1cc(I)c[nH]1` [Compound 12f], the MIC in series [1] is over 32 µM; in series [2] it was over 64 µM.

Take `O=C(NCCCCNCCCNC(=O)c1cc(Br)c[nH]1)c1cc(Br)c[nH]1` [Compound 17d]: the MIC in series [1] is over 32 µM; in series [2] it was over 128 µM.

Regarding `O=C(NCCCNCCCNCCCNC(=O)c1cc(Cl)c[nH]1)c1cc(Cl)c[nH]1` [Compound 18b], the minimal inhibitory concentration (MIC) in series [1] was over 32 µM; in series [2] it was 64 to 128 µM (≈ 28.4 to 56.8 µg/mL).

With `CC(C)(C)OC(=O)NCCCNC(=O)c1cc(Cl)c[nH]1` [Compound 28b], the results for the MIC in series [1] and in series [2] were over 32 µM and over 128 µM, respectively.

In the case of polymyxin B [reference compound], the “MIC E. Coli” value in series [2] lay within 0.3 to 0.6 µM.

On to `CN(C)CCCNC(=O)c1cc(Br)c[nH]1` [Compound 27d], for which the minimum inhibitory concentration (MIC) in series [1] is over 32 µM; in series [2], over 128 µM.

`CN(C)CCCNC(=O)c1cc(Cl)c(Cl)[nH]1` [Compound 27c]: the MIC in series [1] is over 32 µM; in series [2], over 128 µM.

For `NCCCNCCNC(=O)c1cc(Br)c(Br)[nH]1` [Compound 23], the values for the MIC in series [1] and in series [2] were over 32 µM and over 128 µM, respectively.

As to `O=C(NCCCNCCCNCCCNC(=O)c1ccc[nH]1)c1ccc[nH]1` [Compound 18a], the MIC in series [1] is over 32 µM; in series [2], over 128 µM.

In the case of `O=C(NCCCCNCCCNC(=O)c1ccc[nH]1)c1ccc[nH]1` [Compound 17a], the minimal inhibitory concentration (MIC) in series [1] is over 32 µM; in series [2], over 128 µM.

As for `NCCCNCCNC(=O)c1cc(Br)c[nH]1` [Compound 21], the MIC was over 32 µM in series [1] and over 128 µM in series [2].

With `CN(C)CCCNC(=O)c1cc(Cl)c[nH]1` [Compound 27b], the MIC was over 32 µM in series [1] and over 128 µM in series [2].

In the case of `CC(C)(C)OC(=O)NCCCNC(=O)c1cc(Br)c[nH]1` [Compound 28d], the MIC in series [1] is over 32 µM; in series [2], over 128 µM.

Take `NCCNCCNC(=O)c1ccc[nH]1` [Compound 20]: the MIC in series [1] was over 32 µM; in series [2] it was over 128 µM.

Regarding `O=C(NCCCNCCCNCCCNC(=O)c1cc(Br)c[nH]1)c1cc(Br)c[nH]1` [Compound 18d], the MIC in series [1] is 16 to 32 µM (≈ 8.52 to 17 µg/mL); in series [2], 64 to 128 µM (≈ 34.1 to 68.1 µg/mL).
